Data reported in US20140155415A1, “BENZ[…] BENZODIOXINE COMPOUNDS THAT INTERACT WITH G[…] FOR THE TREATMENT OF DIABETES” (priority 2011, published 2014).

How the values were obtained:
[1] = target: T1, GK-GKRP (glucokinase / glucokinase regulatory protein) (Homo sapiens, UniProt Q14397); test: GKRP LC MS/MS Biochemical Assay (LCMS/MS); settings: formation of 13C-glucose-6-phosphate from 13C-glucose by LC MS/MS, human His-hepatic GK, fructose-6-phosphate
T1 sequence (Q14397 1-625): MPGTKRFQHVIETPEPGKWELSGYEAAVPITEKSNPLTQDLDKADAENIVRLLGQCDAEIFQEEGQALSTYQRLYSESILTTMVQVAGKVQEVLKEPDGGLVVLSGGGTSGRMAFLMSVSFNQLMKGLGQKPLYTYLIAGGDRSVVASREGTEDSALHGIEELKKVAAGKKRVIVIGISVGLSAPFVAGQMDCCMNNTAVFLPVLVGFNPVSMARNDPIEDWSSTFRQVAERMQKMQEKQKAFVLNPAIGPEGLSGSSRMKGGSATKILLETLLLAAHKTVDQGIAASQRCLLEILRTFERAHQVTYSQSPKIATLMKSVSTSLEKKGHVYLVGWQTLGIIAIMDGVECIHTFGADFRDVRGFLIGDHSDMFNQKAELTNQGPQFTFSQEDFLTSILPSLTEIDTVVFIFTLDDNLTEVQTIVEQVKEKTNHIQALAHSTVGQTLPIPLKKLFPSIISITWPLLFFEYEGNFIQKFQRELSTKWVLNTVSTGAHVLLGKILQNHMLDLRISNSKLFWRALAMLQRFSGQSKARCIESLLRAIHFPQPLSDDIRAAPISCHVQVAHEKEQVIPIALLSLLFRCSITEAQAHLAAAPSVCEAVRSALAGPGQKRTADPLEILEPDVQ
In short: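 Human His-tagged hepatic GK (30 nM working stock, 5×) with GKRP in 50 mM Tris pH 7.5, 4 mM MgCl2, 6% DMSO; compound preincubated 30 min, then GK added for 30 min at room temperature. Acetonitrile-stopped; 13C-glucose-6-phosphate formed from 13C-glucose quantified by LC MS/MS.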

[2] = target: T2, GK-GKRP (interaction between glucokinase and glucokinase regulatory protein) (Homo sapiens, UniProt Q14397); test: GK-GKRP Binding Assay (Binding), AlphaScreen; settings: avi-tagged GKRP, GK-fluorescein, AlphaScreen beads, 1 μM sorbitol-6-phosphate; read-out: GK-GKRP IC50 (Binding)
T2 construct: made in house; host or cells: GKRP: baculovirus system
T2 sequence (Q14397 1-625): T1 sequence (Q14397 1-625)
In short: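 Biotinylated, C-terminally avi-tagged human GKRP was preincubated 20 min at room temperature with compound, then fluorescein-labelled human hepatic GK was added (6 nM in the added buffer). The mix was incubated 2 h at room temperature in the dark before AlphaScreen reading. Buffer was 20 mM Tris pH 7.5, 0.05% BSA, 1 mM DTT, 1 μM sorbitol-6-phosphate.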

Row | EC50 [1] | IC50 [2] | Compound
1 | 68 nM | 42 nM | COc1ccccc1C(NS(=O)(=O)c1ccc2c(c1)OCCCO2)c1nc2ccccc2s1 (racemic) [Example 51, N-(1,3-benzothiazol-2-yl(2-methoxyphenyl)methyl)-3,4-dihydro-2H-1,5-benzodioxepine-7-sulfonamide]
2 | 29 nM | 6 nM | CSc1ccccc1C(NS(=O)(=O)c1ccc2c(c1)OCCCO2)c1nc2ccccc2s1 (racemic) [Example 52, N-(1,3-benzothiazol-2-yl(2-(methylsulfanyl)phenyl)methyl)-3,4-dihydro-2H-1,5-benzodioxepine-7-sulfonamide]
3 | 360 nM | 270 nM | COc1cccnc1C(NS(=O)(=O)c1ccc2c(c1)OCCCO2)c1nc2ccccc2s1 (racemic) [Example 53, N-(1,3-benzothiazol-2-yl(3-methoxy-2-pyridinyl)methyl)-3,4-dihydro-2H-1,5-benzodioxepine-7-sulfonamide]
4 | 750 nM | 1100 nM | O=S(=O)(NC(c1ccccc1)c1nc2ccccc2o1)c1ccc2c(c1)OCCCO2 (racemic) [Example 54, N-(1,3-benzoxazol-2-yl(phenyl)methyl)-3,4-dihydro-2H-1,5-benzo dioxepine-7-sulfonamide]
5 | 240 nM | 860 nM | O=S(=O)(NC(c1ccccc1)c1ccc2ccccc2c1)c1ccc2c(c1)OCCCO2 (racemic) [Example 55, N-(2-naphthalenyl(phenyl)methyl)-3,4-dihydro-2H-1,5-benzo dioxepine-7-sulfonamide]
6 | 720 nM | 1400 nM | O=S(=O)(NC(c1ccccc1)c1ccc2ccccc2n1)c1ccc2c(c1)OCCCO2 (racemic) [Example 56, N-(phenyl(2-quinolinyl)methyl)-3,4-dihydro-2H-1,5-benzodioxepine-7-sulfonamide]
7 | 110 nM | 310 nM | O=S(=O)(NC(c1ccccc1)c1cc2ccccc2s1)c1ccc2c(c1)OCCCO2 (racemic) [Example 57, N-(1-benzothiophen-2-yl(phenyl)methyl)-3,4-dihydro-2H-1,5-benzodioxepine-7-sulfonamide]
8 | 200 nM | 790 nM | COc1ccc2sc(C(NS(=O)(=O)c3ccc4c(c3)OCCCO4)c3ccccc3)cc2c1 (racemic) [Example 58, N-((5-methoxy-1-benzothiophen-2-yl)(phenyl)methyl)-3,4-dihydro-2H-1,5-benzodioxepine-7-sulfonamide]
9 | 300 nM | 630 nM | O=S(=O)(NC(c1ccccc1)c1nc2ccccc2s1)c1ccc2c(c1)OCCCO2 (racemic) [Example 59, N-(1,3-benzothiazol-2-yl(phenyl)methyl)-3,4-dihydro-2H-1,5-benzodioxepine-7-sulfonamide]
10 | 570 nM | 360 nM | O=S(=O)(NC(c1ccccc1)c1cc2ccncc2s1)c1ccc2c(c1)OCCCO2 (racemic) [Example 60, N-(phenyl(thieno[2,3-c]pyridin-2-yl)methyl)-3,4-dihydro-2H-1,5-benzodioxepine-7-sulfonamide]
11 | 2500 nM | 2300 nM | O=S(=O)(NC(c1ccccc1)c1cc2ncccc2s1)c1ccc2c(c1)OCCCO2 (racemic) [Example 61, N-(phenyl(thieno[3,2-b]pyridin-2-yl)methyl)-3,4-dihydro-2H-1,5-benzodioxepine-7-sulfonamide]
12 | 4600 nM | 11000 nM | O=S(=O)(NC(c1ccccc1)c1cc2cnccc2s1)c1ccc2c(c1)OCCCO2 (racemic) [Example 62, N-(phenyl(thieno[3,2-c]pyridin-2-yl)methyl)-3,4-dihydro-2H-1,5-benzodioxepine-7-sulfonamide]
13 | 3200 nM | 4200 nM | O=S(=O)(NC(c1ccccc1)c1cc2cc(O)ccc2s1)c1ccc2c(c1)OCCCO2 (racemic) [Example 63, N-((5-hydroxy-1-benzothiophen-2-yl)(phenyl)methyl)-3,4-dihydro-2H-1,5-benzodioxepine-7-sulfonamide]
14 | 20 nM | 4 nM | CSc1ccccc1C(NS(=O)(=O)c1ccc2c(c1)OCCCO2)c1cc2ccncc2s1 (racemic) [Example 64, N-((2-(methylsulfanyl)phenyl)(thieno[2,3-c]pyridin-2-yl)methyl)-3,4-dihydro-2H-1,5-benzodioxepine-7-sulfonamide]
15 | 37 nM | 9 nM | CSc1ccccc1C(NS(=O)(=O)c1ccc2c(c1)OCCCO2)c1nc2cccnc2s1 (racemic) [Example 65, N-((2-(methylsulfanyl)phenyl)([1,3]thiazolo[5,4-b]pyridin-2-yl)methyl)-3,4-dihydro-2H-1,5-benzodioxepine-7-sulfonamide]
16 | 82 nM | 72 nM | COc1ccccc1C(NS(=O)(=O)c1ccc2c(c1)OCCCO2)c1cc2ccncc2s1 (racemic) [Example 66, N-((2-methoxyphenyl)(thieno[2,3-c]pyridin-2-yl)methyl)-3,4-dihydro-2H-1,5-benzodioxepine-7-sulfonamide]
17 | 95 nM | 58 nM | COc1ccccc1C(NS(=O)(=O)c1ccc2c(c1)OCCCO2)c1nc2cccnc2s1 (racemic) [Example 67, N-((2-methoxyphenyl)([1,3]thiazolo[5,4-b]pyridin-2-yl)methyl)-3,4-dihydro-2H-1,5-benzodioxepine-7-sulfonamide]
18 | 63 nM | 54 nM | O=S(=O)(NC(c1nc2cccnc2s1)c1ccccc1Cl)c1ccc2c(c1)OCCCO2 (racemic) [Example 68, N-((2-chlorophenyl)([1,3]thiazolo[5,4-b]pyridin-2-yl)methyl)-3,4-dihydro-2H-1,5-benzodioxepine-7-sulfonamide]
19 | 26 nM | 21 nM | C[C@](O)(c1ccnc(-c2cccc3cc([C@@H](NS(=O)(=O)c4ccc5c(c4)OCCCO5)c4ccccc4)sc23)c1)C(F)(F)F (racemic) [Example 70, N-(phenyl(7-(4-(2,2,2-trifluoro-1-hydroxy-1-methylethyl)-2-pyridinyl)-1-benzothiophen-2-yl)methyl)-3,4-dihydro-2H-1,5-benzodioxepine-7-sulfonamide]
20 | 290 nM | 540 nM | O=S(=O)(NC(c1ccccc1)c1cc2cccc(-c3ccccn3)c2s1)c1ccc2c(c1)OCCCO2 (racemic) [Example 71, N-(phenyl(7-(2-pyridinyl)-1-benzothiophen-2-yl)methyl)-3,4-dihydro-2H-1,5-benzodioxepine-7-sulfonamide]
21 | 480 nM | 1000 nM | O=S(=O)(NC(c1ccccc1)c1cc2cccc(Cl)c2s1)c1ccc2c(c1)OCCCO2 (racemic) [Example 72, N-((7-chloro-1-benzothiophen-2-yl)(phenyl)methyl)-3,4-dihydro-2H-1,5-benzodioxepine-7-sulfonamide]
22 | 1000 nM | 1200 nM | O=S(=O)(NC(c1ccccc1)c1cc2cccc(-c3ccccc3)c2s1)c1ccc2c(c1)OCCCO2 (racemic) [Example 73, N-(phenyl(7-phenyl-1-benzothiophen-2-yl)methyl)-3,4-dihydro-2H-1,5-benzodioxepine-7-sulfonamide]
23 | 340 nM | 950 nM | CSc1ccccc1C(NS(=O)(=O)c1ccc2c(c1)OCCO2)c1cc2ccccc2s1 (racemic) [Example 75, N-(1-benzothiophen-2-yl(2-(methylsulfanyl)phenyl)methyl)-2,3-dihydro-1,4-benzodioxine-6-sulfonamide]
24 | > 50000 nM | 4800 nM | CCc1ccccc1[C@H](NS(=O)(=O)c1ccc2c(c1)OCCCO2)c1cc2ccccc2o1 (single isomer, unassigned) [Example 6 Peak #1]
25 | 40 nM | 110 nM | CCc1ccccc1[C@@H](NS(=O)(=O)c1ccc2c(c1)OCCCO2)c1cc2ccccc2o1 (single isomer, unassigned) [Example 6 Peak #2]
26 | 6100 nM | 1200 nM | COc1ccccc1[C@H](NS(=O)(=O)c1ccc2c(c1)OCCCO2)c1cc2ccccc2o1 (single isomer, unassigned) [Example 17 Peak #1]
27 | 52 nM | 52 nM | COc1ccccc1[C@@H](NS(=O)(=O)c1ccc2c(c1)OCCCO2)c1cc2ccccc2o1 (single isomer, unassigned) [Example 17 Peak #2]
28 | 290 nM | 970 nM | CSc1ccccc1[C@H](NS(=O)(=O)c1ccc2c(c1)OCCCO2)c1cc2ccccc2o1 (single isomer, unassigned) [Example 19 Peak #1]
